{
  "source": "paper PMC6405875",
  "about": "(Scientific Reports, 2019)",
  "molecules": {"B1": {"name": "hDAT Y88F/H547A (Homo sapiens; H547A/Y88F) (protein)", "chain": "MSKSKCSVGLMSSVVAPAKEPNAVGPKEVELILVKEQNGVQLTSSTLTNPRQSPVEAQDRETWGKKIDFLLSVIGFAVDLANVWRFPFLCYKNGGGAFLVPYLLFMVIAGMPLFYMELALGQFNREGAAGVWKICPILKGVGFTVILISLYVGFFYNVIIAWALHYLFSSFTTELPWIHCNNSWNSPNCSDAHPGDSSGDSSGLNDTFGTTPAAEYFERGVLHLHQSHGIDDLGPPRWQLTACLVLVIVLLYFSLWKGVKTSGKVVWITATMPYVVLTALLLRGVTLPGAIDGIRAYLSVDFYRLCEASVWIDAATQVCFSLGVGFGVLIAFSSYNKFTNNCYRDAIVTTSINSLTSFSSGFVVFSFLGYMAQKHSVPIGDVAKDGPGLIFIIYPEAIATLPLSSAWAVVFFIMLLTLGIDSAMGGMESVITGLIDEFQLLHRHRELFTLFIVLATFLLSLFCVTNGGIYVFTLLDHFAAGTSILFGVLIEAIGVAWFYGVGQFSDDIQQMTGQRPSLYWRLCWKLVSPCFLLFVVVVSIVTFRPPAYGAYIFPDWANALGWVIATSSMAMVPIYAAYKFCSLPGSFREKLAYAIAPEKDRELVDRGEVRQFTLRHWLKV"}},
  "key": {"[1]": {"molecular_target": "T1, hDAT Y88F/H547A (Homo sapiens, UniProt Q01959, H547A/Y88F)", "T1 construct": "expressed in transfected cells; host or cells: rat PC12 cells (ATCC CRL-1721), pcDNA3.1+", "T1 sequence (Q01959 1-620 Y88F/H547A)": "B1 chain", "experiment": "AMPH-stimulated [3H]DA efflux, Y88F/H547A hDAT", "format": "cell-based", "parameters": "unit not given here", "settings": "AMPH 5–250 µM, fractional release of cellular [3H]DA"}, "[2]": {"molecular_target": "T2, hDAT Y88F (Homo sapiens, UniProt Q01959, Y88F)", "T2 construct": "expressed in transfected cells; host or cells: rat PC12 cells (ATCC CRL-1721), pcDNA3.1+", "T2 sequence (Q01959 1-620 Y88F)": "B1 chain with A547H", "experiment": "AMPH-stimulated [3H]DA efflux, Y88F hDAT", "format": "cell-based", "settings": "AMPH 5–250 µM, fractional release of cellular [3H]DA", "description": "(§1) In the current study, we used rat pheochromocytoma cells (PC12 cells, CRL-1721, American Type Culture Collection (ATCC), Manassas, VA), which were maintained in Dulbecco’s modified eagle medium (DMEM, Life Technologies, Carlsbad, CA) supplemented with 15% horse serum, 2.5% bovine calf serum, 2 mM glutamine and antibiotics, 100 U/mL penicillin and 100 µg/mL streptomycin. Cells were cultured at 37 °C in a 5% CO2 incubator. Once cells were growing to 100% confluence on plates, cells were seeded at a density of 1 × 10^5 cells/cm^2 in 24-well plates and transfected with WT hDAT or mutants by Lipofectamine 2000 (Life Technologies). Twenty-four hours after transfection, intact cells or cell suspensions were used for experiments."}, "[3]": {"molecular_target": "T3, WT hDAT (Homo sapiens, UniProt Q01959)", "T3 construct": "expressed in transfected cells; host or cells: rat PC12 cells (ATCC CRL-1721), pcDNA3.1+", "experiment": "AMPH-stimulated [3H]DA efflux, WT hDAT", "format": "cell-based", "settings": "AMPH 5–250 µM, fractional release of cellular [3H]DA", "description": "as §1"}, "[4]": {"molecular_target": "T3, WT hDAT", "experiment": "[3H]DA uptake in PC12 cells transfected with WT hDAT", "format": "cell-based", "description": "as §1\n(§2) Twenty-four hours after transfection, cells in 24-well plates were washed twice with Krebs-Ringer-HEPES (KRH) buffer (final concentration in mM: 125 NaCl, 5 KCl, 1.5 MgSO4, 1.25 CaCl2, 1.5 KH2PO4, 10 D-glucose, 25 HEPES, 0.1 EDTA, 0.1 pargyline, and 0.1 L-ascorbic acid; pH 7.4) and incubated with nomifensine (10 µM, final concentration) as nonspecific uptake for 10 min at room temperature. […] The reaction was terminated by removal of solution from wells and quickly washed three times with ice cold KRH buffer. Cells were then lysed in 500 μL of 1% SDS for an hour and radioactivity was measured using a liquid scintillation counter (Tri-Carb 2900TR; PerkinElmer Life and Analytical Sciences, Waltham, MA).\n(§3) In brief, cells were dissociated with trypsin/EDTA (0.25%/0.1%, 1 mL for one 10 cm dish) and resuspended in culture medium and incubated at room temperature for 10 min. The dissociated cells were collected by centrifugation at 400 × g for 5 min at 4 °C and washed once with phosphate-buffered saline followed by additional 5 min centrifugation (400 × g, 4 °C). Finally, the resulted cell pellets were resuspended in KRH assay buffer. […] The update reaction was terminated by immediate filtration through Whatman GF/B glass filters (presoaked with 1 mM pyrocatechol for 3 h) followed by three washes with 3 mL of ice-cold KRH buffer containing pyrocatechol using a Brandel cell harvester (model M-48; Brandel Inc., Gaithersburg, MD). Radioactivity was determined as described above."}, "[5]": {"molecular_target": "T4, hDAT H547A (Homo sapiens, UniProt Q01959, H547A)", "T4 construct": "expressed in transfected cells; host or cells: rat PC12 cells (ATCC CRL-1721), pcDNA3.1+", "T4 sequence (Q01959 whole entry H547A)": "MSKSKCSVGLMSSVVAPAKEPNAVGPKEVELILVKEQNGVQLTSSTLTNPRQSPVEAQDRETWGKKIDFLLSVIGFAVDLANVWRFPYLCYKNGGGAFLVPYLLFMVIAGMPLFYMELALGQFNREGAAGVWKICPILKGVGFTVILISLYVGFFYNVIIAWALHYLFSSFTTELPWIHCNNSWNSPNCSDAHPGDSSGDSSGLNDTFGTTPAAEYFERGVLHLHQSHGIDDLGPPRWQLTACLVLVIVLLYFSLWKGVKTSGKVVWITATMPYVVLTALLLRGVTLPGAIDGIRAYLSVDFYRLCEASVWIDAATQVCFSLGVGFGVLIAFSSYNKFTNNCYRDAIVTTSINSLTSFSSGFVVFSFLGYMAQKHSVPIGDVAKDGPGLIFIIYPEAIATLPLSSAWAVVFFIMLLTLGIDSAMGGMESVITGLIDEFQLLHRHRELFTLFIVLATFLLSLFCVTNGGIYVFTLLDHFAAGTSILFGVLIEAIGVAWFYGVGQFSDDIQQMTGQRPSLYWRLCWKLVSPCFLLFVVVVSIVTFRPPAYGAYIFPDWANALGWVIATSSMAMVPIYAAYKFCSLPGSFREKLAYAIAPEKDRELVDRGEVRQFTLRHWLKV", "experiment": "AMPH-stimulated [3H]DA efflux, H547A hDAT", "format": "cell-based", "settings": "AMPH 5–250 µM, fractional release of cellular [3H]DA", "description": "as §1"}, "[6]": {"molecular_target": "T5, hDAT Y88A (Homo sapiens, UniProt Q01959, Y88A)", "T5 construct": "expressed in transfected cells; host or cells: rat PC12 cells (ATCC CRL-1721)", "T5 sequence (Q01959 1-620 Y88A)": "B1 chain with F88A, A547H", "experiment": "AMPH-stimulated [3H]DA efflux, Y88A hDAT", "format": "cell-based", "settings": "AMPH 5–250 µM, fractional release of cellular [3H]DA", "description": "as §1"}, "[7]": {"molecular_target": "T1, hDAT Y88F/H547A", "experiment": "[3H]DA uptake in PC12 cells transfected with Y88F/H547A hDAT", "format": "cell-based", "description": "as §1, §2, §3"}, "[8]": {"molecular_target": "T6, hDAT Y88F/K92M/H547A (Homo sapiens, UniProt Q01959, H547A/K92M/Y88F)", "T6 sequence (Q01959 1-620 Y88F/K92M/H547A)": "B1 chain with K92M", "description": "as §1\nTwenty-four hours after transfection, cells in 24-well plates were washed twice with Krebs-Ringer-HEPES (KRH) buffer (final concentration in mM: 125 NaCl, 5 KCl, 1.5 MgSO4, 1.25 CaCl2, 1.5 KH2PO4, 10 D-glucose, 25 HEPES, 0.1 EDTA, 0.1 pargyline, and 0.1 L-ascorbic acid; pH 7.4) and incubated with nomifensine (10 µM, final concentration) as nonspecific uptake for 10 min at room temperature. […] Cells were then lysed in 500 μL of 1% SDS for an hour and radioactivity was measured using a liquid scintillation counter (Tri-Carb 2900TR; PerkinElmer Life and Analytical Sciences, Waltham, MA)."}, "[9]": {"molecular_target": "T3, WT hDAT", "settings": "1 µM PMA; cited from earlier work"}, "[10]": {"molecular_target": "T4, hDAT H547A", "settings": "1 µM PMA; H547A mutant; cited from earlier work"}, "[11]": {"molecular_target": "T3, WT hDAT", "experiment": "[3H]WIN 35,428 binding in intact PC12 cells transfected with WT hDAT"}, "[12]": {"molecular_target": "T1, hDAT Y88F/H547A", "experiment": "[3H]WIN 35,428 binding in intact PC12 cells transfected with Y88F/H547A hDAT", "settings": "Zn2+ 10 and 100 µM"}, "[13]": {"substrate": "NCCc1ccc(O)c(O)c1", "experiment": "cells, lysate or membranes", "settings": "other: PC12 cells, Y88F/H547A; pH 7.4; 37.0 °C"}},
  "note": "Positions count from the first letter of the chain named. Names may count otherwise.",
  "data": [
    {"molecule": "CC(N)Cc1ccccc1", "note": "(centres unmarked) [AMPH, amphetamine]", "values": [
      {"measurement": "Vmax of AMPH-stimulated [3H]DA efflux", "setting": "[1]", "result": "0.20 ± 0.03"},
      {"measurement": "Vmax of AMPH-stimulated [3H]DA efflux", "setting": "[2]", "result": "0.28 ± 0.06"},
      {"measurement": "Vmax of AMPH-stimulated [3H]DA efflux", "setting": "[3]", "result": "0.42 ± 0.03"},
      {"measurement": "AMPH-induced decrease of Vmax of [3H]DA uptake vs control", "setting": "[4]; AMPH 1 µM, WT hDAT", "result": 32, "unit": "%"},
      {"measurement": "Vmax of [3H]DA uptake in presence of AMPH", "setting": "[4]; AMPH 1 µM, WT hDAT", "result": "7.80 ± 0.97", "unit": "pmol/min/10^5 cells"},
      {"measurement": "Vmax of AMPH-stimulated [3H]DA efflux", "setting": "[5]", "result": "0.22 ± 0.04"},
      {"measurement": "Vmax of AMPH-stimulated [3H]DA efflux", "setting": "[6]", "result": "0.29 ± 0.01"},
      {"measurement": "AMPH-induced decrease of Vmax of [3H]DA uptake vs control", "setting": "[7]; AMPH 1 µM, Y88F/H547A", "result": 42, "unit": "%"},
      {"measurement": "Vmax of [3H]DA uptake in presence of AMPH", "setting": "[7]; AMPH 1 µM, Y88F/H547A", "result": "10.9 ± 1.33", "unit": "pmol/min/10^5 cells"}
    ]},
    {"molecule": "NCCc1ccc(O)c(O)c1", "note": "[DA, Dopamine]", "values": [
      {"measurement": "Vmax of [3H]DA uptake", "setting": "[8]; PC12 cells", "result": "0.5 ± 0.31", "unit": "pmol/min/10^5 cells"},
      {"measurement": "Km", "setting": "[8]; read-out: Km of [3H]DA uptake, PC12 cells", "result": "1.89 ± 1.25", "unit": "µM"},
      {"measurement": "Vmax of [3H]DA uptake", "setting": "[4]; AMPH experiment, in the absence of AMPH, WT hDAT", "result": "11.5 ± 0.94", "unit": "pmol/min/10^5 cells"},
      {"measurement": "Km", "setting": "[4]; PC12 cells, WT hDAT", "result": "1.21 ± 0.17", "unit": "µM"},
      {"measurement": "Vmax of [3H]DA uptake", "setting": "[4]; PC12 cells, WT hDAT", "result": "12.52 ± 0.68", "unit": "pmol/min/10^5 cells"},
      {"measurement": "Vmax of [3H]DA uptake", "setting": "[7]; AMPH experiment, in the absence of AMPH, Y88F/H547A", "result": "18.9 ± 2.81", "unit": "pmol/min/10^5 cells"},
      {"measurement": "Vmax of [3H]DA uptake", "setting": "[7]; PC12 cells, Y88F/H547A", "result": "24.06 ± 4.32", "unit": "pmol/min/10^5 cells"}
    ]},
    {"molecule": "rTat1–86: recombinant HIV-1 transactivator of transcription protein, residues 1–86 (Diatheva)", "values": [
      {"measurement": "Reduction of specific [3H]DA uptake relative to control", "setting": "[4]; 140 nM rTat1–86, 20 min preincubation, WT hDAT", "result": 31, "unit": "%"},
      {"measurement": "Tat-induced reduction of [3H]DA uptake relative to control", "setting": "[7]; 140 nM rTat1–86, 20 min preincubation, Y88F/H547A, p > 0.05 vs control", "result": "attenuated"}
    ]},
    {"molecule": "CCCCCCCCCCCCCC(=O)O[C@@H]1[C@@H](C)[C@@]2(O)[C@@H](C=C(CO)C[C@]3(O)C(=O)C(C)=C[C@@H]23)[C@@H]2C(C)(C)[C@]12OC(C)=O", "note": "[PMA, phorbol 12-myristate 13-acetate]", "values": [
      {"measurement": "Decrease in Vmax of DA uptake vs control", "setting": "[9]", "result": 40, "unit": "%"},
      {"measurement": "Reduction of Km of [3H]DA uptake vs control", "setting": "[4]", "result": 53, "unit": "%"},
      {"measurement": "Reduction of Vmax of [3H]DA uptake vs vehicle control", "setting": "[4]", "result": 51, "unit": "%"},
      {"measurement": "Reduction of Km of [3H]DA uptake vs control", "setting": "[7]", "result": 63, "unit": "%"},
      {"measurement": "Reduction of Vmax of [3H]DA uptake vs vehicle control", "setting": "[7]", "result": 60, "unit": "%"},
      {"measurement": "Decrease in Vmax of DA uptake vs control", "setting": "[10]", "result": 60, "unit": "%"}
    ]},
    {"molecule": "[Cl-].[Cl-].[Zn+2]", "note": "[Zn^2+, ZnCl2]", "values": [
      {"measurement": "Reduction of [3H]DA uptake vs control (absence of Zn2+)", "setting": "[4]; Zn2+ 10 µM, WT hDAT", "result": "~ 40%"},
      {"measurement": "Reduction of [3H]DA uptake vs control (absence of Zn2+)", "setting": "[4]; Zn2+ 100 µM, WT hDAT", "result": "~ 40%"},
      {"measurement": "Increase of [3H]WIN35,428 binding vs control (absence of Zn2+)", "setting": "[11]; Zn2+ 10 µM", "result": 49, "unit": "%"},
      {"measurement": "Increase of [3H]WIN35,428 binding vs control (absence of Zn2+)", "setting": "[11]; Zn2+ 100 µM", "result": 69, "unit": "%"},
      {"measurement": "Reduction of [3H]DA uptake vs control (absence of Zn2+)", "setting": "[7]; Zn2+ 10 µM, Y88F/H547A", "result": 60, "unit": "%"},
      {"measurement": "Reduction of [3H]DA uptake vs control (absence of Zn2+)", "setting": "[7]; Zn2+ 100 µM, Y88F/H547A", "result": 71, "unit": "%"},
      {"measurement": "Zn2+-induced increase in [3H]WIN 35,428 binding compared with WT hDAT", "setting": "[12]", "result": "significantly diminished"}
    ]},
    {"molecule": "B1", "values": [
      {"measurement": "Km", "setting": "[13]", "result": "4.25 ± 1.05", "unit": "µM"}
    ]}
  ]
}
